Test results published in article PMC12778052 (Science Advances, 2026).
Starred links: 1 amine or outer side, 2 acyl side, 3 side chain; linkers in the order of their positions; H or OH if unused. Positions of bridges follow the written chain, without caps; N, C: chain ends. Non-standard residues stand in square brackets, D forms with d. Primed or numbered codes have the meaning given here. *: point of attachment. TATA = O=C(CC[*:1])N1CN(C(=O)CC[*:2])CN(C(=O)CC[*:3])C1; NOTA = O=C(O)CN1CCN(CC(=O)O)CCN(CC(=O)*)CC1; Hyp = O=C(O)[C@@H]1C[C@@H](O)CN1; hArg = N=C(N)NCCCC[C@H](N)C(=O)O; PEG12′ = not defined here; Nal = naphthylalanine

T1: human Nectin-4 (Homo sapiens, UniProt Q96NY8)
T1 construct: purchased R&D Systems 2659-N4-050
T1 sequence (Q96NY8 32-349 limits assumed): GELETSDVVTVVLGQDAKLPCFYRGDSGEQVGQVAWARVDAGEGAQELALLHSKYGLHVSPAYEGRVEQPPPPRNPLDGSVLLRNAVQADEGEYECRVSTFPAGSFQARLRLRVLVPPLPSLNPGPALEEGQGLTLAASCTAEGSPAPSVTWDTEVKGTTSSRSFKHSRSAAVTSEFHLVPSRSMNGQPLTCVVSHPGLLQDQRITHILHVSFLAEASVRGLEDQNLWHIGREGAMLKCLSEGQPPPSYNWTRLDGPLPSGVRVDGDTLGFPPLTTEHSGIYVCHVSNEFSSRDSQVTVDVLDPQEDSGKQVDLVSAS

T2: mouse Nectin-4 (Mus musculus, UniProt Q8R007)
T2 construct: purchased R&D Systems 3116-N4-050
T2 sequence (Q8R007 31-347 limits assumed): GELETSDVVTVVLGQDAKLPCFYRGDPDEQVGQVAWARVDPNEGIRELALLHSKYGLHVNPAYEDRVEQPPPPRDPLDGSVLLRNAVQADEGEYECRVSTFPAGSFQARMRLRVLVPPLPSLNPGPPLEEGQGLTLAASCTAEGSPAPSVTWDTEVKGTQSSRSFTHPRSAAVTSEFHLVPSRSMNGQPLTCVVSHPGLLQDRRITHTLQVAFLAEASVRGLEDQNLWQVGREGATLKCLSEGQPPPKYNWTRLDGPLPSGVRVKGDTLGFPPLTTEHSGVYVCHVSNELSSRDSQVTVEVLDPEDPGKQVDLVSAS

T3: His-tagged mouse Nectin-4 (R&D Systems, catalog no. 3116-N4-050) (mouse, UniProt Q8R007 31-347)
T3 chain: T2 sequence (Q8R007 31-347 limits assumed)

T4: His-tagged human Nectin-4 (R&D Systems, catalog no. 2659-N4-050) (human, UniProt Q96NY8 32-349)
T4 chain: T1 sequence (Q96NY8 32-349 limits assumed)

B1: AJ647 (NOTA-PEG12 conjugate of the bicyclic peptide AJ632) (peptide)
chain: {NOTA-PEG12′}-CP[Nal]DCM[hArg]DWSTP[Hyp]WC-NH2
modifications: linker 1-5-15 via TATA; not fully specified (residue 8)

Columns and labels:
human Nectin-4 = target: T1, human Nectin-4; assay: SPR affinity for recombinant human Nectin-4; type: binding; conditions: Biacore T200, CM5 chip, 25°C, His-tagged recombinant protein captured, 1:1 kinetics fit, n = 3
Procedure: (§1) The affinity of AJ647 for human and mouse Nectin-4 recombinant proteins was evaluated by SPR. The experiments were conducted using a Biacore T200 instrument with a CM5 chip at 25°C. The ligands used were His-tagged human Nectin-4 (R&D Systems, catalog no. 2659-N4-050, 44 kDa, 0.2 mg/ml stock concentration) and mouse Nectin-4 proteins (R&D Systems, catalog no. 3116-N4-050, 45 kDa, 0.2 mg/ml stock concentration), which were immobilized onto the CM5 chip. AJ647 (3057.5 Da, 10 mM stock concentration) was used as the analyte, which flowed over the ligand-immobilized surface. FC2 and FC4 was used as the experimental flow cell, while FC1 and FC3 served as the reference. An anti-His antibody (1 mg/ml stock concentration) was immobilized on all flow cells using standard amine coupling chemistry. […] Human Nectin-4 was captured onto FC2 at a level of ~600 RU, with a 1:20 dilution and 10 μg/ml diluted concentration in PBS-P. Mouse Nectin-4 was captured onto FC4 at a level of 600 RU, with a 1:20 dilution and 10 μg/ml diluted concentration in PBS-P. The theoretical maximum response (Rmax ) values were calculated on the basis of the captured response values (table S1), assuming a 1:1 interaction mechanism. […] All association and dissociation kinetics were evaluated by 1:1 kinetics model fitting.

mouse Nectin-4 = target: T2, mouse Nectin-4; assay: SPR affinity for recombinant mouse Nectin-4; type: binding; conditions: Biacore T200, CM5 chip, 25°C, His-tagged recombinant protein captured, 1:1 kinetics fit, n = 3
Procedure: as §1

HT1376 xenografts = assay: In vivo blocking of [^68Ga]AJ647 uptake by nonradioactive AJ647, PET; design: species or system NSG mice; conditions: nonradioactive AJ647 2 mg/kg pre-injected; PET-MR 60 min
Procedure: Mice with tumor volumes of ~100 to 150 mm^3 were injected with ~200 μCi [7.4 megabecquerels (MBq)] of [^68Ga]AJ647 in […] of 5% ethanol in saline intravenously and anesthetized under 2.5% isoflurane. PET-computed tomography (CT) images were acquired at 60 min after radiotracer injection at 5 min per bed in an ARGUS small-animal PET/CT scanner (Sedecal, Madrid, Spain) as described previously (n = 3, unless otherwise noted). PET-MR images were acquired on a simultaneous 7T Bruker PET-MR scanner. Dynamic imaging was conducted to evaluate the PK of [^68Ga]AJ647. [^68Ga]AJ647 was injected (with the help of a catheter) after mice were anesthetized under 2.5% isoflurane on the equipment bed. All PET data were reconstructed using the two-dimensional (2D) ordered subset expectation maximization algorithm and corrected for radioactive decay and dead times. The SUV values were calculated by finding %IA on the basis of a calibration factor obtained from a known radioactive quantity and then normalizing by mice weight. Amide software was used to derive SUV values by drawing the region of interest to closely fit tumors. […] For the change in accessible Nectin-4 following EV treatment, ΔSUV was calculated by subtracting baseline (pre-treatment) uptake from posttherapy uptake of [^68Ga]AJ647. TE was quantified by normalizing this change by initial SUV in the same subject controls. […]

[1] = tested on: bladder cancer cell lines; assay: In vitro blocking of [^68Ga]AJ647 uptake by nonradioactive AJ647; type: cell-based; conditions: 2 μM nonradioactive AJ647 (0.2 nmol, blocking dose)
Procedure: In vitro binding of [^68Ga]AJ647 to T24, SCaBER, RT112, UC9, UC14, and HT1376 cells was determined by incubating 1 × 10^6 cells with ~1 μCi of [^68Ga]AJ647 for 30 min at 4°C. After incubation, cells were washed three times with ice-cold PBS containing 0.1% Tween 20 and counted on an automated gamma counter. All cell radioactivity uptake studies were performed in quadruplicate for each cell line and repeated three times.

[2] = target: T3, His-tagged mouse Nectin-4 (R&D Systems, …); assay: SPR
[3] = target: T4, His-tagged human Nectin-4 (R&D Systems, …); assay: SPR

Molecule | Kd (human Nectin-4) [nM] | Kd (mouse Nectin-4) [nM] | effect on [^68Ga]AJ647 uptake in HT1376 xenografts (HT1376 xenografts) | effect of co-incubation on radiotracer uptake [1] | koff [2] [s⁻¹] | koff [3] [s⁻¹]
CSCC[C@@H]1NC(=O)[C@@H]2CSCCC(=O)N3CN(CN(C3)C(=O)CCSC[C@H](NC(=O)CCOCCOCCOCCOCCOCCOCCOCCOCCOCCOCCOCCOCCNC(=O)CN3CCN(CC(=O)O)CCN(CC(=O)O)CC3)C(=O)N3CCC[C@H]3C(=O)N[C@@H](Cc3cccc4ccccc34)C(=O)N[C@@H](CC(=O)O)C(=O)N2)C(=O)CCSC[C@@H](C(N)=O)NC(=O)[C@H](Cc2c[nH]c3ccccc23)NC(=O)[C@@H]2C[C@@H](O)CN2C(=O)[C@@H]2CCCN2C(=O)[C@H]([C@@H](C)O)NC(=O)[C@H](CO)NC(=O)[C@H](Cc2c[nH]c3ccccc23)NC(=O)[C@@H](CC(=O)O)NC(=O)[C@H](CCCCNC(=N)N)NC1=O [AJ647] | 15 ± 10.1 | 14.1 ± 3.4 | reduction in tracer uptake | significantly reduced radiotracer uptake | – | –
B1 | – | – | – | – | 0.0101 | 0.0106
